EP2505659A1, “Methods for the identification of dioxygenase interacting molecules and for the purification of dioxygenase proteins” (CELLZOME AG, priority 2011, dated 2012)
Where a name gives a salt, the structure may show the parent alone.

Legend:
[1] = target: T1, ALKBH3 (Homo sapiens, UniProt Q96Q83); test: Bead competition binding assay, immobilized compound B, HL-60 nuclear extract; conditions: 200 µM free compound B, read-out: Fold change versus DMSO control
T1 construct: capturing and identification of dioxygenases from nuclear protein extracts; endogenous in cells
T1 sequence (Q96Q83 1-286): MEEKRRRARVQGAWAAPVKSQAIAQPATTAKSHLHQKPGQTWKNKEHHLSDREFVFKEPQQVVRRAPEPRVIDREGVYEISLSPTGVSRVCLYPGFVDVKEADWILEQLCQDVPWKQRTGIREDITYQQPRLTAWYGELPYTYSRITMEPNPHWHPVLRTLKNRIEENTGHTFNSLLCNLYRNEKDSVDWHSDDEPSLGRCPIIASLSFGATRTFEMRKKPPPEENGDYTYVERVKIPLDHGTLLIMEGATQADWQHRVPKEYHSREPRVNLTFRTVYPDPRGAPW
Procedure: (§1) The preparation of HL-60 nuclear lysates, capturing of dioxygenases from cell lysate and the protein identification by Mass Spectrometry was performed as described in example 2.
(§2) Seven different dioxygenases were identified. […] Table 7: Identified dioxygenases with compound B from HL-60 nuclear extract

[2] = target: T2, C17ORF101 (Homo sapiens, UniProt Q6PK18); test: as above; conditions: 200 µM free compound B, read-out: Fold change versus DMSO control
T2 construct: capturing and identification of dioxygenases from nuclear protein extracts; endogenous in cells
T2 sequence (Q6PK18 1-331 isoform Q6PK18-2): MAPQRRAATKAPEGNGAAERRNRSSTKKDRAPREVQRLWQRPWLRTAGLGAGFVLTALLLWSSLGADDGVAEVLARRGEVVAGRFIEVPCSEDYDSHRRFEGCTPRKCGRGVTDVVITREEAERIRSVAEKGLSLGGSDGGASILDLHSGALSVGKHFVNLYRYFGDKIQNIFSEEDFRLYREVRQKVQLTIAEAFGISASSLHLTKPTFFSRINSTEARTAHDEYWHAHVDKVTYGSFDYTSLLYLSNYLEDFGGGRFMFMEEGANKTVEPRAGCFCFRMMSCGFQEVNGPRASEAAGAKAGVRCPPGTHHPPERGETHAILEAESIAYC
Procedure: as §1, §2

[3] = target: T3, EGLN1 (Homo sapiens, UniProt Q9GZT9); test: as above; conditions: 200 µM free compound B, read-out: Fold change versus DMSO control
T3 construct: endogenous in cells
T3 sequence (Q9GZT9 whole entry): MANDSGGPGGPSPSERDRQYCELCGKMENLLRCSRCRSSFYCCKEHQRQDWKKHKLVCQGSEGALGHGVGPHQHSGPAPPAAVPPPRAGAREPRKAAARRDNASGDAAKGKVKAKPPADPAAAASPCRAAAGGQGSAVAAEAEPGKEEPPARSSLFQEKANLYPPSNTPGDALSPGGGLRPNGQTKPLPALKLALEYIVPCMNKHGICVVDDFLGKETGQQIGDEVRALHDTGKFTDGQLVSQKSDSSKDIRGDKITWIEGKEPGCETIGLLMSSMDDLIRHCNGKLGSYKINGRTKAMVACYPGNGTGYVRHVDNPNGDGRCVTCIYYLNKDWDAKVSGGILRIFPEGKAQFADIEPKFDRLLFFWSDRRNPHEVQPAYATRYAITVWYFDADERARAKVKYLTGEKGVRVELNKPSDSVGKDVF
Procedure: as §1, §2

[4] = target: T4, LEPRE1 (Homo sapiens, UniProt Q32P28); test: as above; conditions: 200 µM free compound B, read-out: Fold change versus DMSO control
T4 construct: capturing and identification of dioxygenases from nuclear protein extracts; endogenous in cells
T4 sequence (Q32P28 23-736): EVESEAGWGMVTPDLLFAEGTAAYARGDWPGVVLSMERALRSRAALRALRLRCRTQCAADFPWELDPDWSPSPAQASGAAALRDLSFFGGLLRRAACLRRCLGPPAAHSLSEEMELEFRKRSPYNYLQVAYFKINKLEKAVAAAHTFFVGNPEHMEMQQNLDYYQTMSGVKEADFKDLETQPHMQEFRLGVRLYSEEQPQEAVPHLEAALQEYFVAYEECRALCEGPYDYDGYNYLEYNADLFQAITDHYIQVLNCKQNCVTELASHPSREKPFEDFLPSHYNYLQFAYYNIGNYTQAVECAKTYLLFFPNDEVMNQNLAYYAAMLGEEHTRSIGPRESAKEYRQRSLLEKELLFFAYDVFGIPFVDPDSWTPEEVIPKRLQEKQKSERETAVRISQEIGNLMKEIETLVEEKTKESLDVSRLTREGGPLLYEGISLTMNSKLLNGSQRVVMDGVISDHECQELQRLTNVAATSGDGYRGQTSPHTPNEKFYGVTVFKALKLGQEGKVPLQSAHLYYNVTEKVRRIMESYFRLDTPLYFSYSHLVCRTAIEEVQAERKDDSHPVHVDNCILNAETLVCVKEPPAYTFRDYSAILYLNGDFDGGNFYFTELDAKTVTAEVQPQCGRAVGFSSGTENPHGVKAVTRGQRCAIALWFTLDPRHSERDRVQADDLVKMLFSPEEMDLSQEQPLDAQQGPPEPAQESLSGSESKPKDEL
Procedure: as §1, §2

[5] = target: T5, LEPREL2 (Homo sapiens, UniProt Q8IVL6); test: as above; conditions: 200 µM free compound B, read-out: Fold change versus DMSO control
T5 construct: capturing and identification of dioxygenases from nuclear protein extracts; endogenous in cells
T5 sequence (Q8IVL6 21-736): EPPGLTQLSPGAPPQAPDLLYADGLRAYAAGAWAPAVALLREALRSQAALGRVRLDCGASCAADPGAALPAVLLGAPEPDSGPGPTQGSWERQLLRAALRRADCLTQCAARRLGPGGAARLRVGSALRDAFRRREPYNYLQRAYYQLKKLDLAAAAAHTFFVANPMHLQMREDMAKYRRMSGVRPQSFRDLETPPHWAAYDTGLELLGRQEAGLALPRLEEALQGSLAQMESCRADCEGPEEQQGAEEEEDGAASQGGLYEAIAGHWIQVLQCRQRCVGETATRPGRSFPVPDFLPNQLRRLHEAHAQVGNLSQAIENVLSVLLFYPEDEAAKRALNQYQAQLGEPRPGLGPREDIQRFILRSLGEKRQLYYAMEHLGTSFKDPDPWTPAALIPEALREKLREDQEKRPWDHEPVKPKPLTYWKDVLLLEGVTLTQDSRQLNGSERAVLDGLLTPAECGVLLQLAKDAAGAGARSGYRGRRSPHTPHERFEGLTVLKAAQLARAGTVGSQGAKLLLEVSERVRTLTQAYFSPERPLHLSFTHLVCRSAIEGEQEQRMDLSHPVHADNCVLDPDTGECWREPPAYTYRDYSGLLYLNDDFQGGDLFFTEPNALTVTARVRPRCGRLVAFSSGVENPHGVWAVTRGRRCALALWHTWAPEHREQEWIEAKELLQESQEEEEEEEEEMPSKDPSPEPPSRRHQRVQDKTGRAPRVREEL
Procedure: as §1, §2

[6] = target: T6, OGFOD2 (Homo sapiens, UniProt Q6N063); test: as above; conditions: 200 µM free compound B, read-out: Fold change versus DMSO control
T6 construct: endogenous in cells; host or cells: HL-60 nuclear extract
T6 sequence (Q6N063 1-350): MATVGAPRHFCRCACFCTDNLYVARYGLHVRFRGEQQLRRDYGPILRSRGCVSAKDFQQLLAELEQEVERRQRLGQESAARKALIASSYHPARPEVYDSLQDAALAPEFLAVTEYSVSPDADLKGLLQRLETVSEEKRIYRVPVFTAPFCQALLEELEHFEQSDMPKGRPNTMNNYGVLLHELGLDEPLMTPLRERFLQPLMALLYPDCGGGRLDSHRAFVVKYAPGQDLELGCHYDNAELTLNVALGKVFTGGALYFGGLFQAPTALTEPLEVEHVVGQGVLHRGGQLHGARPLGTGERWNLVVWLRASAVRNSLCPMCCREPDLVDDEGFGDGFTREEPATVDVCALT
Procedure: as §1, §2

[7] = target: T7, P4HA1 (Homo sapiens, UniProt P13674); test: as above; conditions: 200 µM free compound B, read-out: Fold change versus DMSO control
T7 construct: endogenous in cells
T7 sequence (P13674 18-534): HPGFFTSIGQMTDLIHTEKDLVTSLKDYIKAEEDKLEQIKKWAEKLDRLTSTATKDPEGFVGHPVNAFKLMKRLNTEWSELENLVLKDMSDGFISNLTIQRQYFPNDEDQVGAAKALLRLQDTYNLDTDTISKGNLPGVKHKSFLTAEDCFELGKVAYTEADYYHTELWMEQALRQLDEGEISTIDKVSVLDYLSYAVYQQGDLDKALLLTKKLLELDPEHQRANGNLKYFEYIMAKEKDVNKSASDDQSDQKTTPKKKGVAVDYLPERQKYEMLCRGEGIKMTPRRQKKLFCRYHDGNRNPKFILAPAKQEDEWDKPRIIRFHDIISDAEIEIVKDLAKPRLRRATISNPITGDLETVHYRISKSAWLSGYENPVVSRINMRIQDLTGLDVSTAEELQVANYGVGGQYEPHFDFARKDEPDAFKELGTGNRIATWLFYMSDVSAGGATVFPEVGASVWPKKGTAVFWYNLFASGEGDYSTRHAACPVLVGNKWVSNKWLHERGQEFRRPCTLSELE
T7 sequence (P07237 18-508 partner): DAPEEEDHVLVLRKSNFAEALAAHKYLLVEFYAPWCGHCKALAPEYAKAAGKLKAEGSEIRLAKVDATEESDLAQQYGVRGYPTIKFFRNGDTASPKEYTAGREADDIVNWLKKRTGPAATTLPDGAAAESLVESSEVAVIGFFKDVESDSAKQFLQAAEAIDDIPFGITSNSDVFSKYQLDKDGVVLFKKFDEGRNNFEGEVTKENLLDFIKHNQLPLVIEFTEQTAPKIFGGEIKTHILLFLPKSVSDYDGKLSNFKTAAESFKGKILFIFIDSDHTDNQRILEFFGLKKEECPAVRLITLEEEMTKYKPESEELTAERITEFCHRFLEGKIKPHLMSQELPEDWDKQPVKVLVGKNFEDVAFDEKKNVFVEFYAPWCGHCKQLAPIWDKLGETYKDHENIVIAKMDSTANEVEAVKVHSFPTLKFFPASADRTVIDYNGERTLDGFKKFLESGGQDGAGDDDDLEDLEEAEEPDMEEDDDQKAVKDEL
Procedure: as §1, §2

[8] = target: T1, ALKBH3; test: Bead competition binding assay, immobilized compound C, HL-60 nuclear extract; conditions: 200 µM free compound C, read-out: Fold change versus DMSO control
Procedure: as §1
(§3) Seven different dioxygenases were identified. […] Table 8: Identified dioxygenases with compound C from HL-60 nuclear extract

[9] = target: T2, C17ORF101; test: as above; conditions: 200 µM free compound C, read-out: Fold change versus DMSO control
Procedure: as §1, §3

[10] = target: T3, EGLN1; test: as above; conditions: 200 µM free compound C, read-out: Fold change versus DMSO control
Procedure: as §1, §3

[11] = target: T4, LEPRE1; test: as above; conditions: 200 µM free compound C, read-out: Fold change versus DMSO control
Procedure: as §1, §3

[12] = target: T5, LEPREL2; test: as above; conditions: 200 µM free compound C, read-out: Fold change versus DMSO control
Procedure: as §1, §3

[13] = target: T7, P4HA1; test: as above; conditions: 200 µM free compound C, read-out: Fold change versus DMSO control
Procedure: as §1, §3

[14] = target: T8, PLOD1 (Homo sapiens, UniProt Q02809); test: as above; conditions: 200 µM free compound C, read-out: Fold change versus DMSO control
T8 construct: capturing and identification of dioxygenases from nuclear protein extracts; endogenous in cells
T8 sequence (Q02809 19-727): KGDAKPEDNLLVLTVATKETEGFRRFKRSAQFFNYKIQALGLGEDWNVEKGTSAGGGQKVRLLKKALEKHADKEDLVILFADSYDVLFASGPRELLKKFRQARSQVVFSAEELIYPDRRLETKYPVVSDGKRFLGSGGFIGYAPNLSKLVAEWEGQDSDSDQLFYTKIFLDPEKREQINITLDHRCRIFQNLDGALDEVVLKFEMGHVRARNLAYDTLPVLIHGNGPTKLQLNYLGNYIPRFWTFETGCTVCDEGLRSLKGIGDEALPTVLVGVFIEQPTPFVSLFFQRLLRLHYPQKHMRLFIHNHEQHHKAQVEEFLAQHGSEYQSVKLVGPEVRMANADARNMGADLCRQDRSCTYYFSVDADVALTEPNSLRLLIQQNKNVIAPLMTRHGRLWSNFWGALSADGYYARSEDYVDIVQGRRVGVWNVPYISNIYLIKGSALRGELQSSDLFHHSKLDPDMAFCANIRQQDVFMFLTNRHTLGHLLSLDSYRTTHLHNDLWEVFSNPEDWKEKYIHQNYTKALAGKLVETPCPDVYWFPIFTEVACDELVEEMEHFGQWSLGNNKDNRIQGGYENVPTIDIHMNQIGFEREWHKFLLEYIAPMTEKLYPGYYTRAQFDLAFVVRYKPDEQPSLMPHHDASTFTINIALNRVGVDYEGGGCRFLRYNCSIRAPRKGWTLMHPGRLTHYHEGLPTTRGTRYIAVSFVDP
Procedure: as §1, §3

Structure (SMILES) | remaining binding at 200 µM [1] | remaining binding at 200 µM [2] | remaining binding at 200 µM [3] | remaining binding at 200 µM [4] | remaining binding at 200 µM [5] | remaining binding at 200 µM [6] | remaining binding at 200 µM [7] | remaining binding at 200 µM [8] | remaining binding at 200 µM [9] | remaining binding at 200 µM [10] | remaining binding at 200 µM [11] | remaining binding at 200 µM [12] | remaining binding at 200 µM [13] | remaining binding at 200 µM [14]
O=C(O)CNC(=O)C1C(=O)OC2(CCCNC2)OC1=O (centres unmarked) [compound B, 2-(2,4-dioxo-1,5-dioxa-8-azaspiro[5.5]undecane-3-carboxamido)acetic acid hydrochloride] | 56% | 52% | 52% | 67% | 13% | 18% | 24% |  |  |  |  |  |  | 
O=C(O)CNC(=O)C1C(=O)OC(C2CCNCC2)OC1=O (centres unmarked) [compound C, 2-(4,6-dioxo-2-(piperidin-4-yl)-1,3-dioxane-5-carboxamido)acetic acid hydrochloride] |  |  |  |  |  |  |  | 45% | 24% | 19% | 48% | 12% | 10% | 51%
